Assay: xn = mol fraction of the nth substance listed
Settings: 100 kPa

CC[N+](C)(CC)CCOC.O=S(=O)([N-]S(=O)(=O)C(F)(F)F)C(F)(F)F + CC[N+](C)(CC)CCOC.F[B-](F)(F)F
x1 = 1
Settings | electrical conductivity [S/m]
293.15 K | 0.237
303.15 K | 0.382
308.15 K | 0.476
313.15 K | 0.572
318.15 K | 0.683
323.15 K | 0.794
328.15 K | 0.922
333.15 K | 1.06
338.15 K | 1.2
343.15 K | 1.32

CC[N+](C)(CC)CCOC.F[B-](F)(F)F + CCCC[n+]1ccn(C)c1C.F[B-](F)(F)F
electrical conductivity [S/m]
Settings | x1 = 0.1 | x1 = 0.2 | x1 = 0.3 | x1 = 0.4 | x1 = 0.5 | x1 = 0.6 | x1 = 0.7 | x1 = 0.8 | x1 = 0.9 | x1 = 1
313.15 K | 0.231 | 0.244 | 0.282 | – | 0.29 | 0.296 | – | 0.321 | 0.348 | 0.343
318.15 K | 0.305 | – | 0.354 | – | – | 0.38 | 0.392 | – | 0.445 | –
323.15 K | 0.392 | 0.404 | 0.437 | 0.445 | 0.465 | 0.472 | 0.498 | 0.519 | – | 0.553
328.15 K | – | – | 0.534 | 0.541 | – | 0.579 | 0.614 | 0.639 | – | 0.68
333.15 K | 0.604 | 0.613 | 0.643 | 0.67 | – | 0.72 | 0.766 | 0.782 | 0.822 | 0.829
338.15 K | 0.727 | 0.736 | 0.758 | – | 0.79 | 0.828 | 0.884 | 0.939 | 0.995 | 1
343.15 K | 0.861 | 0.871 | 0.9 | – | 0.936 | 0.978 | 1.03 | 1.09 | – | 1.18
348.15 K | 1.02 | 1.03 | 1.05 | 1.07 | 1.09 | – | 1.2 | 1.27 | 1.37 | 1.39
353.15 K | 1.16 | – | – | – | – | 1.32 | – | 1.42 | 1.59 | –
358.15 K | 1.31 | 1.35 | – | – | 1.46 | 1.51 | 1.56 | – | 1.82 | 1.86
363.15 K | 1.5 | 1.53 | 1.58 | 1.62 | – | 1.73 | 1.77 | 1.82 | 2.01 | –

CCCC[n+]1ccn(C)c1C.F[B-](F)(F)F + FC(S(=O)(=O)[N-]S(=O)(=O)C(F)(F)F)(F)F.C(CCC)N1C(=[N+](C=C1)C)C
x2 = 0
Settings | electrical conductivity [S/m]
318.15 K | 0.153
333.15 K | 0.335
343.15 K | 0.531
348.15 K | 0.63
353.15 K | 0.749
358.15 K | 0.867
363.15 K | 0.995

CC[N+](C)(CC)CCOC.O=S(=O)([N-]S(=O)(=O)C(F)(F)F)C(F)(F)F + FC(S(=O)(=O)[N-]S(=O)(=O)C(F)(F)F)(F)F.C(CCC)N1C(=[N+](C=C1)C)C
x1 = 1
Settings | electrical conductivity [S/m]
293.15 K | 0.237
298.15 K | 0.311
303.15 K | 0.382
308.15 K | 0.476
313.15 K | 0.572
318.15 K | 0.683
323.15 K | 0.794
328.15 K | 0.922
333.15 K | 1.06
338.15 K | 1.2
343.15 K | 1.32

CCCC[n+]1ccn(C)c1C.F[B-](F)(F)F + CC[N+](C)(CC)CCOC.F[B-](F)(F)F
x2 = 0
Settings | electrical conductivity [S/m]
318.15 K | 0.153
323.15 K | 0.202
328.15 K | 0.26
353.15 K | 0.749
358.15 K | 0.867
363.15 K | 0.995

CC[N+](C)(CC)CCOC.F[B-](F)(F)F + CC[N+](C)(CC)CCOC.O=S(=O)([N-]S(=O)(=O)C(F)(F)F)C(F)(F)F
electrical conductivity [S/m]
Settings | x2 = 0 | x2 = 0.1 | x2 = 0.2 | x2 = 0.3 | x2 = 0.4 | x2 = 0.5 | x2 = 0.6 | x2 = 0.7 | x2 = 0.8 | x2 = 0.9
293.15 K | 0.096 | – | 0.133 | 0.14 | 0.149 | 0.161 | 0.175 | 0.168 | 0.184 | 0.198
298.15 K | 0.136 | 0.161 | 0.174 | – | 0.202 | 0.214 | 0.234 | – | 0.251 | –
303.15 K | 0.19 | 0.218 | 0.233 | 0.25 | 0.264 | 0.277 | 0.304 | 0.298 | 0.324 | –
308.15 K | 0.255 | 0.292 | 0.305 | – | 0.338 | – | – | 0.381 | 0.407 | 0.423
313.15 K | 0.343 | 0.381 | – | – | 0.425 | 0.444 | 0.47 | 0.472 | – | 0.509
318.15 K | 0.437 | 0.483 | 0.485 | 0.506 | – | 0.541 | 0.569 | – | 0.599 | 0.625
323.15 K | 0.553 | 0.596 | – | – | 0.636 | 0.652 | 0.684 | 0.687 | 0.709 | 0.731
328.15 K | 0.68 | 0.737 | – | 0.734 | 0.763 | 0.779 | – | 0.804 | 0.833 | 0.863
333.15 K | 0.829 | – | 0.858 | 0.873 | 0.897 | – | 0.934 | – | 0.964 | 0.993
338.15 K | 1 | 1.06 | 1.02 | 1.02 | 1.04 | 1.06 | 1.08 | – | 1.11 | 1.13
343.15 K | 1.18 | 1.24 | – | – | 1.2 | 1.22 | 1.24 | 1.23 | – | 1.29

CCCCn1cc[n+](C)c1C.O=S(=O)([N-]S(=O)(=O)C(F)(F)F)C(F)(F)F + CC[N+](C)(CC)CCOC.O=S(=O)([N-]S(=O)(=O)C(F)(F)F)C(F)(F)F
electrical conductivity [S/m]
Settings | x2 = 0 | x2 = 0.1 | x2 = 0.2 | x2 = 0.3 | x2 = 0.4 | x2 = 0.5 | x2 = 0.6 | x2 = 0.7 | x2 = 0.8 | x2 = 0.9
293.15 K | – | 0.191 | – | 0.195 | 0.201 | – | 0.206 | 0.211 | 0.21 | 0.21
298.15 K | – | 0.253 | – | 0.259 | 0.263 | 0.264 | 0.268 | 0.275 | 0.28 | 0.28
303.15 K | 0.302 | 0.323 | 0.326 | 0.325 | 0.336 | 0.337 | 0.345 | 0.355 | 0.351 | 0.351
308.15 K | – | 0.402 | 0.403 | 0.407 | 0.414 | 0.423 | 0.426 | 0.432 | 0.434 | 0.434
313.15 K | 0.465 | 0.498 | 0.497 | 0.499 | 0.509 | – | 0.515 | – | 0.56 | 0.56
318.15 K | 0.566 | 0.589 | – | 0.601 | 0.611 | 0.616 | 0.62 | 0.638 | – | 0.648
323.15 K | – | 0.705 | 0.71 | 0.722 | 0.726 | 0.735 | 0.742 | – | 0.763 | 0.763
328.15 K | – | – | 0.825 | – | – | 0.865 | 0.87 | 0.876 | 0.902 | –
333.15 K | 0.901 | 0.965 | 0.962 | 0.969 | 0.973 | 0.991 | – | 1.01 | 1.02 | 1.02
338.15 K | 1.04 | 1.1 | – | 1.12 | 1.12 | 1.13 | 1.13 | 1.16 | 1.17 | 1.17
343.15 K | 1.18 | – | – | 1.27 | 1.27 | 1.28 | 1.29 | 1.32 | – | 1.33

CCCCn1cc[n+](C)c1C.O=S(=O)([N-]S(=O)(=O)C(F)(F)F)C(F)(F)F + CCCC[n+]1ccn(C)c1C.F[B-](F)(F)F
electrical conductivity [S/m]
Settings | x1 = 0.1 | x1 = 0.2 | x1 = 0.3 | x1 = 0.4 | x1 = 0.5 | x1 = 0.6 | x1 = 0.7 | x1 = 0.8 | x1 = 0.9 | x1 = 1
313.15 K | 0.231 | 0.249 | 0.265 | 0.305 | – | 0.32 | 0.35 | 0.403 | 0.476 | 0.465
318.15 K | 0.301 | 0.32 | – | 0.378 | – | 0.394 | 0.432 | – | 0.572 | 0.566
323.15 K | 0.381 | – | – | – | 0.476 | 0.482 | 0.521 | 0.59 | 0.683 | 0.665
328.15 K | 0.474 | 0.49 | 0.508 | 0.54 | 0.572 | 0.581 | 0.617 | 0.698 | 0.812 | 0.777
333.15 K | 0.587 | 0.6 | 0.617 | 0.645 | 0.68 | – | 0.709 | 0.816 | 0.94 | 0.901
338.15 K | 0.707 | 0.715 | – | – | 0.796 | – | 0.839 | 0.949 | 1.08 | 1.04
343.15 K | 0.844 | 0.848 | 0.859 | 0.894 | 0.931 | 0.952 | 0.963 | 1.08 | 1.23 | 1.18
348.15 K | 0.997 | 0.995 | 1.01 | – | 1.07 | 1.08 | 1.09 | – | – | 1.37
353.15 K | 1.16 | 1.15 | 1.16 | 1.18 | 1.23 | 1.23 | 1.24 | – | 1.56 | 1.54
358.15 K | – | 1.31 | 1.32 | 1.34 | – | 1.4 | – | – | 1.74 | –
363.15 K | 1.5 | – | 1.5 | 1.51 | – | 1.57 | 1.59 | 1.64 | 1.91 | 1.87

Reference: a compilation of properties of binary mixtures (doi:10.1016/j.molliq.2022.120193)
